Drawing on PubChem BioAssay (NCI), this text covers TGI for ten compounds.

Among the test systems are RXF 393 renal; HOP-62 NSCLC; MALME-3M melanoma; MOLT-4 leukemia; ACHN renal; HT29 colon; HL-60(TB) leukemia; TK-10 renal; CCRF-CEM leukemia; SF-295 CNS; HOP-92 NSCLC; RPMI-8226 leukemia; K-562 leukemia; U251 CNS.
Holding throughout (experiment): NCI anticancer screen, dose series, 48 h

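Step 1: Grow cells in 96-well plates. Step 2: Expose to compound for 48 hours at 5 concentrations. Step 3: Interpolate endpoints linearly; if unreached, use highest concentration. The concentration for full growth arrest is given as TGI.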

For the compound `COc1cc(NS(C)(=O)=O)ccc1Nc1c2ccccc2nc2c1[nH]c1ccc(NC3OC(CO)C(O)C(O)C3O)cc12` (configuration not stated), the TGI was 0.61 µM in the experiment on RXF 393 renal; 0.208 µM in the experiment on HOP-62 NSCLC; 1.43 µM with MALME-3M melanoma; 3.65 µM with MOLT-4 leukemia; 0.137 µM in the experiment on ACHN renal; 0.938 µM in the experiment with HT29 colon. The TGI in the experiment with HL-60(TB) leukemia is 0.282 µM; with TK-10 renal, 0.7 µM; in the experiment with CCRF-CEM leukemia it was 3.12 µM; in the experiment on SF-295 CNS, 0.13 µM; in the experiment with HOP-92 NSCLC it was 1.04 µM; in the experiment on RPMI-8226 leukemia, 3.85 µM. The TGI in the experiment on K-562 leukemia was 20.3 µM; in the experiment with U251 CNS it was 0.332 µM.
With `CN1CCOC(c2ccccc2)O1` (configuration not stated), the TGI in the experiment with RXF 393 renal, in the experiment with HOP-62 NSCLC, in the experiment on MALME-3M melanoma, in the experiment on MOLT-4 leukemia, with ACHN renal and in the experiment with HT29 colon was over 100 µM in each case. Besides, the TGI in the experiment on HL-60(TB) leukemia, with TK-10 renal, in the experiment with CCRF-CEM leukemia, in the experiment with SF-295 CNS, in the experiment on HOP-92 NSCLC and with RPMI-8226 leukemia was over 100 µM throughout. Also, the TGI in the experiment on K-562 leukemia and in the experiment on U251 CNS was over 100 µM in each case.
`O=Cc1[nH]c(=O)[nH]c(=O)c1C(=O)O`: the TGI in the experiment on RXF 393 renal, with HOP-62 NSCLC, in the experiment on MALME-3M melanoma, with MOLT-4 leukemia, in the experiment on ACHN renal and in the experiment on HT29 colon was over 100 µM throughout. The TGI in the experiment on HL-60(TB) leukemia, with TK-10 renal, in the experiment with CCRF-CEM leukemia, with SF-295 CNS, in the experiment on HOP-92 NSCLC and in the experiment on RPMI-8226 leukemia was over 100 µM throughout. Also, the TGI in the experiment with K-562 leukemia and in the experiment on U251 CNS was over 100 µM throughout.
For `Oc1[nH]c2ccccc2c1N=NC(=S)Nc1cccc(Cl)c1`, the TGI with RXF 393 renal is 48.7 µM; with HOP-62 NSCLC, 42.5 µM; with MALME-3M melanoma, 52.3 µM; in the experiment with MOLT-4 leukemia it was 10.8 µM; in the experiment on ACHN renal, 28.8 µM; in the experiment with HT29 colon, 28.4 µM. Also, the TGI in the experiment on HL-60(TB) leukemia is 49.6 µM; with TK-10 renal, 84.8 µM; in the experiment on CCRF-CEM leukemia, 31 µM; in the experiment on SF-295 CNS, 29.2 µM; with HOP-92 NSCLC it was 70.3 µM; in the experiment on K-562 leukemia it was 50 µM. In the experiment on U251 CNS, this compound displayed a TGI of 89.1 µM.
For `N#Cc1c(-c2ccc(Cl)cc2Cl)nc2[nH][nH]c(=S)n2c1=O`, the TGI in the experiment with RXF 393 renal, in the experiment on HOP-62 NSCLC, in the experiment on MALME-3M melanoma, in the experiment on MOLT-4 leukemia, in the experiment on ACHN renal and with HT29 colon was over 100 µM in each case. Moreover, the TGI in the experiment on HL-60(TB) leukemia, with TK-10 renal, with CCRF-CEM leukemia, in the experiment with SF-295 CNS, in the experiment with HOP-92 NSCLC and with RPMI-8226 leukemia was over 100 µM in each case. In the experiment with U251 CNS, this compound gave a TGI of over 100 µM.
As for `CCCCCCOC(=O)/C=C/[C@]1(CO)C/C(=C/CC(C(C)C)C(C)C)C(=O)O1`, the TGI was found to be 36.9 µM with RXF 393 renal; 27.6 µM in the experiment on HOP-62 NSCLC; 25.7 µM in the experiment with MALME-3M melanoma; 25.6 µM with MOLT-4 leukemia; 20.7 µM in the experiment on ACHN renal; 20.8 µM in the experiment on HT29 colon. Further, the TGI in the experiment with HL-60(TB) leukemia stood at 23.2 µM; in the experiment on TK-10 renal it was 14 µM; in the experiment with SF-295 CNS, 29.8 µM; in the experiment on HOP-92 NSCLC, 25.4 µM; with RPMI-8226 leukemia, 56.1 µM; in the experiment on K-562 leukemia, 31.2 µM.
As to `COC(CNC(=O)C(C)NC(=O)/C=C/c1ccccc1)OC` (configuration not stated), the TGI with RXF 393 renal, with MALME-3M melanoma, in the experiment on MOLT-4 leukemia, in the experiment on ACHN renal, with HT29 colon and in the experiment on HL-60(TB) leukemia was over 100 µM each time. The TGI with TK-10 renal, in the experiment on CCRF-CEM leukemia, with SF-295 CNS, with HOP-92 NSCLC, in the experiment with RPMI-8226 leukemia and in the experiment with K-562 leukemia was over 100 µM each time. In the experiment on U251 CNS, this compound gave a TGI of over 100 µM.
For `NC(=O)C(C(N)=O)=C(O)C(=O)/C=C(\O)c1ccccc1`, the TGI is over 100 µM in the experiment with RXF 393 renal; over 100 µM in the experiment on HOP-62 NSCLC; over 100 µM with MALME-3M melanoma; over 100 µM in the experiment on ACHN renal; over 100 µM with HT29 colon; 58.8 µM in the experiment with HL-60(TB) leukemia. The TGI with TK-10 renal was over 100 µM; in the experiment with CCRF-CEM leukemia it was 52.5 µM; in the experiment on SF-295 CNS it was over 100 µM; in the experiment on HOP-92 NSCLC, over 100 µM; in the experiment on RPMI-8226 leukemia, 31.7 µM; with K-562 leukemia, 29.9 µM. In the experiment on U251 CNS, this compound yielded a TGI of over 100 µM.
Regarding `COc1cc2c(C)cc(O)cc2c2cc(O)c(C)cc12`, the TGI in the experiment with RXF 393 renal amounted to 22.9 µM; with HOP-62 NSCLC, 15.5 µM; with MOLT-4 leukemia, 25.1 µM; with ACHN renal it was 22.6 µM; with HT29 colon, 45.8 µM; with HL-60(TB) leukemia, 13 µM. The TGI in the experiment with TK-10 renal stood at 23.8 µM; with CCRF-CEM leukemia, 18.2 µM; with SF-295 CNS, 23.8 µM; in the experiment on HOP-92 NSCLC, 22.3 µM; in the experiment on RPMI-8226 leukemia, 6.64 µM; in the experiment on K-562 leukemia, 9.94 µM. In addition, the TGI in the experiment with U251 CNS turned out to be 21.3 µM.
For the compound `CCC(C)OC(=O)/C(Br)=C1/OC(=O)c2ccccc2-c2ccccc21` (configuration not stated), the TGI was 21.5 µM in the experiment on RXF 393 renal; 35.1 µM with HOP-62 NSCLC; 80.6 µM in the experiment with MALME-3M melanoma; 50.7 µM in the experiment with MOLT-4 leukemia; over 100 µM with ACHN renal; 84.5 µM in the experiment with HT29 colon. The TGI in the experiment on HL-60(TB) leukemia was over 100 µM; in the experiment with TK-10 renal, 43.2 µM; in the experiment on CCRF-CEM leukemia it was 52 µM; with SF-295 CNS, over 100 µM; in the experiment on HOP-92 NSCLC it was 81.9 µM; in the experiment on RPMI-8226 leukemia, 87.9 µM. The same compound gave a TGI with K-562 leukemia of 40.6 µM.
